In the test the target is T1, 15-prostaglandin dehydrogenase/eicosanoid oxidoreductase (EOR) (Homo sapiens, UniProt P15428).
T1 sequence (P15428 1-266): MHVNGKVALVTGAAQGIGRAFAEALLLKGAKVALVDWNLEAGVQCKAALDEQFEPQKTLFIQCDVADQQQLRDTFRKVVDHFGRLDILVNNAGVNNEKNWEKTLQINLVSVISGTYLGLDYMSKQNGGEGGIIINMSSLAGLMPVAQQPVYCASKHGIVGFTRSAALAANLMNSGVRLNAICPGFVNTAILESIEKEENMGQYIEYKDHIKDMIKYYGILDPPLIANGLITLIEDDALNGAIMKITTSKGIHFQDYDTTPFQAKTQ
As to the kind of experiment: spectrophotometric NADH formation at […] nm, initial rate of conversion. It is filed as biochemical.

Turning to `CCCCC[C@H](O)/C=C/C=C\C=C\C=C\[C@@H](O)[C@@H](O)CCCC(=O)O` [LXA4], the “spectrophotometric NADH formation at 340 nm, initial rate of conversion” value amounted to 3.1 µM/min.

Source of the values: article PMC2802337 (Prostaglandins, leukotrienes, and essential fatty acids, 2009).
